This is an account of results in PubChem BioAssay (NCI).

Where “and” joins values, the source holds several entries; their conditions need not be identical. Equal entries are not always repeated.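 Exposure lasted 48 hours, with cells grown in 96-well plates and compounds tested at five concentrations. GI50: concentration for 50% inhibition of growth. At the TGI there is no net growth.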

The subject of the first experiment is MALME-3M melanoma. As to the kind of experiment: NCI-60 cell line screen, 48 h.
In the case of `COc1c(OC)c(OC)c(C(=O)/C=C/c2ccccc2)c(OC)c1OC`, the TGI turned out to be 30.1 µM.

For the molecule `COc1ccc(C(O)c2nccn2C)c(OC)c1` (configuration not stated), the TGI was more than 100 µM.

`NS(=O)(=O)c1ccc(N(/C=C/C(=O)C(F)(F)F)CC(=O)c2ccc(Cl)cc2)cc1`: the GI50 is 24.9 µM and the TGI is 92.6 µM.

For the molecule `CS(=O)(=O)CCCn1c(=O)c(Oc2ccc(F)cc2F)cc2cnc(NC3CCOCC3)nc21`, the GI50 is more than 25 µM and the TGI is more than 25 µM.

On to `N#C/C=C(\c1ccc([N+](=O)[O-])cc1)n1nnc2cc(Cl)c(Cl)cc21`, for which the GI50 was 1.7 µM and the TGI was 4.18 µM.

Regarding `O=C(CC(O)(C(F)(F)F)C(F)(F)F)c1cc(CC(=O)C(O)(C(F)(F)F)C(F)(F)F)cc(CC(=O)C(O)(C(F)(F)F)C(F)(F)F)c1`, the TGI was 6.33 µM.

In the case of `CC1(C)OCCn2c1nc1c(N3CCOCC3)nc(-c3cnc(N)nc3)nc12`, the GI50 is 0.0974 µM and the TGI is 0.6 µM.

With `O=C(c1c(F)ccc(NS(=O)(=O)N2CC[C@@H](F)C2)c1F)c1c[nH]c2ncc(-c3cnc(C4CC4)nc3)cc12`, the GI50 was 0.00378 µM and < 0.01 µM; the TGI is less than 0.043 µM.

The subject of a further experiment is NCI/ADR-RES ovarian. Briefly: NCI-60 cell line screen, 48 h.
With `COc1ccc(-c2oc(=O)ccc2-c2cc(OC)c(OC)c(OC)c2)cc1F`, the GI50 was 11 µM and the TGI is more than 100 µM.

For the molecule `O=C(c1ccc(F)c(F)c1Nc1ccc(I)cc1F)N1CC(O)([C@@H]2CCCCN2)C1`, the GI50 was 6.56 µM and > 7.36 µM; the TGI was 21.5 µM and > 10 µM.

For `Oc1cc(O)c2c(c1)OC(c1ccc(O)c(O)c1)C(OC1(c3cc(O)c(O)c(O)c3)Oc3cc(O)cc(O)c3C(O)C1O)C2` (configuration not stated), the TGI was determined as 99.9 µM.

Turning to `COc1cc(CNCCCN2C(=O)c3ccc4c5c(ccc(c35)C2=O)C(=O)N(CCCNCc2cc(OC)c(OC)c(OC)c2)C4=O)cc(OC)c1OC`, the GI50 is 9.16 µM and the TGI came out at 39 µM.

For the molecule `CC(C)=CCc1cc(O)cc2c1OC(C=C(C)C)C1=C2C(=O)C2=C(NCCS2(=O)=O)C1=O` (configuration not stated), the GI50 was more than 16.7 µM and the TGI was more than 16.7 µM.

Turning to `O=c1[nH]c(=O)n(C2CC(O)C(CO)O2)cc1CO` (configuration not stated), the GI50 was more than 100 µM and the TGI was more than 100 µM.

As for `Cc1nc2cnc(N)c(C#Cc3cncc(C(=O)Nc4ccc(CN5CCN(C)CC5)c(C(F)(F)F)c4)c3)c2nc1C`, the GI50 was 7.56 µM and the TGI came out at 23.8 µM.

On to `CC(=O)OC12c3ccccc3-c3ccccc3C1C1C(=O)N(C)C(=O)C12Cl` (configuration not stated), for which the TGI was more than 10 µM.

Molecule `COc1c(OC)c(OC)c(C(=O)/C=C/c2ccccc2)c(OC)c1OC` registered a TGI of 55.1 µM.

As for `COc1ccc(C(O)c2nccn2C)c(OC)c1` (configuration not stated), the TGI is more than 100 µM.

Turning to `NS(=O)(=O)c1ccc(N(/C=C/C(=O)C(F)(F)F)CC(=O)c2ccc(Cl)cc2)cc1`, the GI50 was 47.6 µM and the TGI was more than 100 µM.

Take `CS(=O)(=O)CCCn1c(=O)c(Oc2ccc(F)cc2F)cc2cnc(NC3CCOCC3)nc21`: the GI50 is more than 25 µM and the TGI is more than 25 µM.

As for `N#C/C=C(\c1ccc([N+](=O)[O-])cc1)n1nnc2cc(Cl)c(Cl)cc21`, the GI50 is 2.54 µM and the TGI was 8.79 µM.

Molecule `O=C(CC(O)(C(F)(F)F)C(F)(F)F)c1cc(CC(=O)C(O)(C(F)(F)F)C(F)(F)F)cc(CC(=O)C(O)(C(F)(F)F)C(F)(F)F)c1` showed a TGI of more than 6.65 µM.

With `CC1(C)OCCn2c1nc1c(N3CCOCC3)nc(-c3cnc(N)nc3)nc12`, the GI50 is 0.508 µM and the TGI is more than 100 µM.

`O=C(c1c(F)ccc(NS(=O)(=O)N2CC[C@@H](F)C2)c1F)c1c[nH]c2ncc(-c3cnc(C4CC4)nc3)cc12`: the GI50 was > 10 µM and 25.2 µM; the TGI was more than 100 µM.

Another experiment deals with OVCAR-8 ovarian. Briefly: NCI-60 cell line screen, 48 h.
Consider `COc1ccc(-c2oc(=O)ccc2-c2cc(OC)c(OC)c(OC)c2)cc1F`, for which the GI50 was 24.1 µM and the TGI was more than 100 µM.

Consider `O=C(c1ccc(F)c(F)c1Nc1ccc(I)cc1F)N1CC(O)([C@@H]2CCCCN2)C1`, for which the GI50 is 10.5 µM and > 10 µM; the TGI is 24.5 µM and > 10 µM.

Molecule `Oc1cc(O)c2c(c1)OC(c1ccc(O)c(O)c1)C(OC1(c3cc(O)c(O)c(O)c3)Oc3cc(O)cc(O)c3C(O)C1O)C2` (configuration not stated) came in with a TGI of more than 67.7 µM.

As for `COc1cc(CNCCCN2C(=O)c3ccc4c5c(ccc(c35)C2=O)C(=O)N(CCCNCc2cc(OC)c(OC)c(OC)c2)C4=O)cc(OC)c1OC`, the GI50 is 0.272 µM and the TGI was found to be 0.959 µM.

In the case of `CC(C)=CCc1cc(O)cc2c1OC(C=C(C)C)C1=C2C(=O)C2=C(NCCS2(=O)=O)C1=O` (configuration not stated), the GI50 is 3.24 µM and the TGI was 8.71 µM.

Regarding `O=c1[nH]c(=O)n(C2CC(O)C(CO)O2)cc1CO` (configuration not stated), the GI50 was more than 100 µM and the TGI was more than 100 µM.

On to `Cc1nc2cnc(N)c(C#Cc3cncc(C(=O)Nc4ccc(CN5CCN(C)CC5)c(C(F)(F)F)c4)c3)c2nc1C`, for which the GI50 is 1.43 µM and the TGI stood at 13.8 µM.

`CC(=O)OC12c3ccccc3-c3ccccc3C1C1C(=O)N(C)C(=O)C12Cl` (configuration not stated) came in with a TGI of more than 10 µM.

As for `COc1c(OC)c(OC)c(C(=O)/C=C/c2ccccc2)c(OC)c1OC`, the TGI came out at 34 µM.

`COc1ccc(C(O)c2nccn2C)c(OC)c1` (configuration not stated) had a TGI of more than 100 µM.

Regarding `NS(=O)(=O)c1ccc(N(/C=C/C(=O)C(F)(F)F)CC(=O)c2ccc(Cl)cc2)cc1`, the GI50 was 43.4 µM and the TGI is more than 100 µM.

With `CS(=O)(=O)CCCn1c(=O)c(Oc2ccc(F)cc2F)cc2cnc(NC3CCOCC3)nc21`, the GI50 was more than 25 µM and the TGI was more than 25 µM.

Consider `N#C/C=C(\c1ccc([N+](=O)[O-])cc1)n1nnc2cc(Cl)c(Cl)cc21`, for which the GI50 was 3.02 µM and the TGI was determined as 12 µM.

As for `O=C(CC(O)(C(F)(F)F)C(F)(F)F)c1cc(CC(=O)C(O)(C(F)(F)F)C(F)(F)F)cc(CC(=O)C(O)(C(F)(F)F)C(F)(F)F)c1`, the TGI amounted to 6.91 µM.

Turning to `CC1(C)OCCn2c1nc1c(N3CCOCC3)nc(-c3cnc(N)nc3)nc12`, the GI50 is 0.404 µM and the TGI was 11.2 µM.

Consider `O=C(c1c(F)ccc(NS(=O)(=O)N2CC[C@@H](F)C2)c1F)c1c[nH]c2ncc(-c3cnc(C4CC4)nc3)cc12`, for which the GI50 is 5.22 µM and 7.06 µM; the TGI is > 10 µM and 55.3 µM.
